Results on four molecules are retold here after US20150190534A1, “COMPOUNDS FOR USE AS POSITRON EMISSION IMAGING AGENTS” (UNIVERSITY OF BERN, priority 2014, published 2015).

Residue numbers refer to the chain shown, from its start. Like-named read-outs stand apart in the source and are kept apart here.

The target in series [1] is T1, human WT-AR (Homo sapiens, UniProt P10275).
T1 construct: pSG5-AR with full-length cDNA of human WT-AR; expressed in transfected cells; host or cells: COS-7
T1 sequence (P10275 1-920): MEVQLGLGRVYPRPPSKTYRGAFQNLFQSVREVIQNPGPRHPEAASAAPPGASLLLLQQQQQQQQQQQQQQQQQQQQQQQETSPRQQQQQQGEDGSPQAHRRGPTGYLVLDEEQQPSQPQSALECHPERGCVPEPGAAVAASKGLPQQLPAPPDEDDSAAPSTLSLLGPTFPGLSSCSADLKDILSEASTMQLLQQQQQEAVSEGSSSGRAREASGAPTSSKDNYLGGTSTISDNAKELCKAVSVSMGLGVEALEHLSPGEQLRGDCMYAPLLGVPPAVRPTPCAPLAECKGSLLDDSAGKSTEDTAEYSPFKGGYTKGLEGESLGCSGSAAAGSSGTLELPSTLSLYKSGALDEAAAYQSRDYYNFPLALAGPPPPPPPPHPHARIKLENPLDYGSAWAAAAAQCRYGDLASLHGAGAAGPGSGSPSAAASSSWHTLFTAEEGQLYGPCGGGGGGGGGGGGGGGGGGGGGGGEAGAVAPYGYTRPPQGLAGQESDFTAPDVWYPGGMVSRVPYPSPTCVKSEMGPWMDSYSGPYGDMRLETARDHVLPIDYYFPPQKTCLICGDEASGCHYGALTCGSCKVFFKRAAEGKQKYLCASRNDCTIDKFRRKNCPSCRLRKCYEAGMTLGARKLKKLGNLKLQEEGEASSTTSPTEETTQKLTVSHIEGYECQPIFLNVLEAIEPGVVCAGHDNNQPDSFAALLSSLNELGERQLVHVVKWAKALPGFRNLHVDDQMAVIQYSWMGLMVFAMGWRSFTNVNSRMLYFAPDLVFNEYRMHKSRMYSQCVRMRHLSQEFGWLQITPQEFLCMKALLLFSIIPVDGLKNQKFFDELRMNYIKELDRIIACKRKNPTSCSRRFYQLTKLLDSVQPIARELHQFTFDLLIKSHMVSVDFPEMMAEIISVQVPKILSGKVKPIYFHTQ
The series is described as follows: Whole cell competitive binding assay, WT-AR. As for the experimental part:
(§1) Prostate. Jun. […] T877A-AR was generated by site-directed mutagenesis as described in Andrieu T, Bertolini R, Nichols S E, et al. A novel steroidal antiandrogen targeting wild type and mutant androgen receptors. Biochem Pharmacol. Dec. […] Cells seeded on 6-well plates (density: 5×10^5/well) were transfected 96 h later with 1 μg of empty (pcDNA3) or human AR encoding plasmids using 3 μl of FuGENE-HD transfection reagent (Roche, Rotkreuz, Switzerland). One day after transfection the medium was changed to 2% charcoal treated (CT) FBS containing medium.
(§2) In 24 wells 50′000 COS-7 cells were seeded and transfected with 500 ng of receptor encoding plasmids. One day later, cells were washed and cultured in 0.5 ml of phenol-red free DMEM with 2% CT-FBS for another 24 h. […] Supernatant and cells were mixed with scintillation liquid (Irgasafe, Perkin Elmer) and radioactivity counted (Tri-Carb 2000CA, Canberra Packard). The percentage of binding in presence and absence of derivative was calculated relatively to total dpm and results expressed as percentage of binding relative to the ^3H-tracer alone (100%).

Series [2] deals with T2, T877A-AR (Homo sapiens, UniProt P10275, T878A).
T2 construct: pSG5-AR with full-length cDNA of human WT-AR; expressed in transfected cells; host or cells: COS-7
T2 sequence (P10275 1-920 T878A): T1 sequence (P10275 1-920) with T878A
The series is described as follows: Whole cell competitive binding assay, T877A-AR. As for the experimental part: as §1, §2

In series [3] the test system is T877A-AR positive C4-2 tumors. The series is described as follows: PET/CT imaging, C4-2 tumor bearing mice. It is filed as in vivo, mouse.
The test system of series [4] is PC-3 AR-negative xenografts. The series is described as follows: PET/CT imaging, PC-3 tumor bearing mice. The series is classed as in vivo, mouse. Conditions: 3 h after injection.
Series [5] addresses T3, mutant T877A-AR (pSG5AR-T877A) transfected COS-7 cells (Homo sapiens, UniProt P10275, T878A).
T3 construct: pSG5-AR with full-length cDNA of human WT-AR; expressed in transfected cells; host or cells: COS-7
T3 sequence (P10275 1-920 T878A): T1 sequence (P10275 1-920) with T878A
It is filed as cell-based. From the text: Prostate. Jun. 1, 2011; 71(8):872-880.), progesterone receptor (pSG5-PR-alpha, pSG5-pPRbeta, PR), glucocorticoid (pCMV5-hGR-alpha, GR) and mineralocorticoid receptors (pRShMR, MR), estrogen receptors (pCMV5-ER-alpha, pCMV5-ER-beta, ER). T877A-AR was generated by site-directed mutagenesis as described in Andrieu T, Bertolini R, Nichols S E, et al. A novel steroidal antiandrogen targeting wild type and mutant androgen receptors. Biochem Pharmacol. Dec. 1, 2011; 82(11):1651-1662. Cells seeded on 6-well plates (density: 5×10^5/well) were transfected 96 h later with 1 μg of empty (pcDNA3) or human AR encoding plasmids using 3 μl of FuGENE-HD transfection reagent (Roche, Rotkreuz, Switzerland). One day after transfection the medium was changed to 2% charcoal treated (CT) FBS containing medium.
Then cells were washed with ice cold PBS. Collected medium and PBS were considered as the unbound fraction. Cells were incubated for 5 min in glycine buffer 50 mM (pH 2.8), washed with PBS (membrane fraction) and lysed with RIPA buffer (Sigma, R0278) (cellular fraction). The radioactivity was measured by gamma counting. Cellular uptake of radioactivity was corrected by the protein amount (BCA assay, Pierce).

The procedure of series [6]:
(§3) Male SCID-mice (Charles River, Sulzfeld, Germany) were subcutaneously injected with C4-2 and PC-3 cells into both shoulders as previously described (21).
(§4) Images were reconstructed at 0.6 mm thickness using a H31s medium smooth plus kernel. […] For biodistribution studies mice were sacrificed using CO2 after 1-3 h, designated organs and tissues harvested and weighed. Radioactivity was measured in a Gamma-counter (Wizard, Perkin Elmer) and the percentage of injected dose per gram of tissue (% ID/g) calculated.

The test system of series [7] is T877A-AR positive C4-2 tumors. The following applies: 1 h. The protocol: as §3, §4
Series [8] has as its system receptor negative PC-3 tumors. Conditions: 1 h. As for the experimental part: as §3, §4

In the case of `C[C@]12CCC(=O)C[C@@H]1CC[C@@H]1[C@@H]2CC[C@]2(C)[C@@H](OC(=O)NCCCF)CC[C@@H]12` [RB390], the half-maximal inhibitory concentration (IC50) (as a rule, the concentration at which inhibition is half-maximal) in series [1] was 0.357 µM; in series [2] it was 0.032 µM. Further, the “PET signal in C4-2 tumors with unlabelled DHT” value in series [3] (3 h, excess of unlabelled DHT injected in parallel) is recorded as “nearly full receptor blockade”. The “PET signal in C4-2 tumors” value in series [3] (3 h after injection) is reported as “bound specifically”. For the same molecule, the “PET signal in PC-3 tumors” value in series [4] was “remained at background levels”.

Take `C[C@]12CC[C@H](O)C[C@@H]1CC[C@@H]1[C@@H]2CC[C@]2(C)[C@@H](OC(=O)NCCCF)CC[C@@H]12` [RB448]: the values for the IC50 in series [1] and in series [2] were 2.21 µM and 0.0377 µM, respectively. Besides, the “affinity/selectivity for T877A-AR versus WT-AR” value in series [2] (comparison of IC50 values) is on record as “even more favorable selectivity”.

Regarding `C[N+](C)(CF)CCO` [^18F-FCH, ^18F-fluorocholine], the “preferential uptake by transfected cells” value in series [5] (pcDNA3, WT-AR or T877A-AR transfected COS-7 cells) is given as “did not reveal any preferential uptake”. The “radioactivity after washing procedures” value in series [5] (transfected COS-7 cells, washing procedures) is given as “eliminated”. Also, in series [6] (1 h), the Bone came out at 27.99 ± 5.95 % ID/g, the Brain was 9.61 ± 2.13 % ID/g, the Heart is 76.93 ± 5.18 % ID/g and the Intestine is 22.97 ± 4.67 % ID/g. In series [6] (1 h), this molecule displayed a Kidney of 164.72 ± 33.57 % ID/g, a Liver of 48.82 ± 7.55 % ID/g, a Lung of 97.42 ± 23.21 % ID/g and a Muscle of 10.36 ± 2.58 % ID/g. In series [6] (1 h), the Prostate was 48.26 ± 19.35 % ID/g, the Spleen was found to be 66.48 ± 19.45 % ID/g and the Testis is reported as 13.58 ± 2.64 % ID/g. Also, the route of metabolism/excretion entry in series [6] (tumor bearing SCID-mice) was “excreted predominantly by the kidney”. Further, the “C4-2 Tumor” value in series [7] stood at 31.62 ± 3.88 % ID/g. Moreover, the “PC-3 Tumor” value in series [8] was 5.65 ± 1.37 % ID/g.

As to ^18F-fluorodeoxyglucose [^18F-FDG], in series [5], the “preferential uptake by transfected cells” value was “did not reveal any preferential uptake” and the “radioactivity after washing procedures” value is reported as “eliminated”.
